Assay results as given in US7253177B2, “Synthesis and antimalarial activity of pyrrolo[3,2-f]quinazoline-1,3-diamine derivatives” (United States of America as Represented by the Secretary of …, priority 2004, dated 2007).
In brackets after ≈: the same amount, converted by molar mass.

Assays:
[1] = tested on: P. falciparum FVO; experiment: Antimalarial activity against P. falciparum in Aotus monkey; type: in vivo, Plasmodium falciparum; conditions: 1 mg/kg once a day x three days, cured = parasitemia free for 100 days post treatment
Procedure: (e). Toxicity Study in Aotus monkey: Protocol: Two malaria double cured Aotus weighing 1027-695 grams respectively received single dose of 3 mg/kg orally of the two compounds 2b and 3e. The monkeys were weighed and pre-bleed for CBC and Chemistry (ALT, BUN, Creatinine) determination, and again three, seven and 15 days post treatment. Signs of toxicity such as anorexia, vomiting, diarrhea or behavior changes were recorded. […] (f). Antimalarial Activity against P. falciparum in Aotus monkey: Protocol: Six (6) malaria naive Aotus lemurinus lemurinus (weigh 787-978 grms) were divided into two groups of two Aotus each plus two controls (MN13177 male and MN 13153 male) and infected with 5×10^6 P. falciparum FVO malaria parasites with 1 ml of an appropriate dilution in RPMI media intravenously on the saphenous vein. When their parasitemia reached 5×10^4 parasites/ul, treatment was started. Giemsa-stained thick blood smears were prepared daily with a prick in the ear marginal vein and parasites enumerated by the Earle and Perez method. Group 1 Aotus received 3e at 1 mg/kg once a day×three days. Group 2 Aotus received 2b at 1 mg/kg once a day×three days. The monkeys were weight and pre-bled for CBC and Chemistry (ALT, BUN, Creatinine) determination, and on day 4 post-treatmetne (PT). Bleedings for Pk determinations were carried out on day 1 PT at time 0, 1 hr, 7:30 hr and 24 hr PT. […]

[2] = tested on: Plasmodium falciparum W-2 clone (CDC Indochina III); experiment: In vitro antimalarial study, [3H]hypoxanthine uptake, W-2 clone; type: cell-based
Procedure: B. Antimalarial Activities: (a). In Vitro Antimalarial Studies. The in vitro assays were conducted by using a modification of the semiautomated microdilution technique of Desjardins et al and Chulay et al.. Four P. falciparum malaria parasite clones, from CDC Indochina III (W-2), CDC Sierra Leone I (D-6), Southeast Asia Isolates (TM91C235) and RCS (Isolates from Brazil) were utilized in susceptibility testing. They were derived by direct visualization and micromanipulation from patient isolates. The W-2 clone is susceptible to mefloquine but resistant to chloroquine, sulfadoxine, pyrimethamine, and quinine, whereas the D-6 clone is naturally resistant to mefloquine but susceptible to chloroquine, sulfadoxine, pyrimethamine and quinine. Test compounds were initially dissolved in DMSO and diluted 400 fold in RPMI 1640 culture medium supplemented with 25 mM Hepes, 32 mM NaHCO3 and 10% Albumax I (Gibco BRL, Grand Island, N.Y.). These solutions were subsequently serially diluted two-fold with a Biomek 1000 (Beckman, Fullerton, Calif.) over 11 different concentrations. The parasites were exposed to serial dilutions of each compound for 48 hrs and incubated at 37° C. with 5% O2, 5% CO2 and 90% N2 prior to the addition of [^3H]hypoxanthine. After a further incubation of 18 hrs, parasite DNA was harvested from each microtiter well using Packard Filtermate 196 Harvester (Meriden, Conn.) onto glass filters. Uptake of [^3H]hypoxanthine was measured with a Packard Topcount Scintillation. Concentration-response data were analyzed by a non-linear regression logistic dose response model and the IC50 values (50% inhibitory concentrations) for each compound were calculated. (Table 3). (b). In Vivo Antimalarial Studies against P. berghei in mice: The in vivo efficacy of the artelinic acid analogs were determined in a modified Thompson test. This test measures the survivability of mice and parasitemia clearance following administration of drug on days 3-5 post infection. In brief, 5×10^6 P. berghei-infected erythrocytes (KBG-173 strain) were inoculated intraperitoneally to female mice that weighed 24-30 g. By day three post-infection, parasitemia ranged from 1.0-3.7%. Each drug, dissolved in 5% sodium bicarbonate, was administered PO twice daily from day 3-5 post-infection. Total doses for each drug ranged from 1.5-384 mg/kg with 8 mice included in each dosage group. The percent suppression of parasitemia in the treated mice compared to the untreated controls was determined for each test compound; the SD-50 (fifty percent suppression dose) and SD-90 were determined from a non-linear regression logistic dose response fit at day 6 parasitemia data. Survival of mice to day 60 post-infection was considered a cure (C). Compounds were considered active (A) when the survival time of the treated mice was greater than twice the control mice, i.e., 12-14 day (Table 4-5). (c). Sporozoite Induced Test Each compound is ground with a mortar & pestle and suspended in 0.5% hydroxyethylcellulose—0.1% Tween 80 for compounds to be administered PO and those given SC are suspended in peanut oil. Each compound is prepared at 3 different dose levels as requested by WRAIR. Compounds are administered either PO or SC to mice once 4 hr before inoculation of sporozoites. Four-week-old male CD-1 mice, purchased from Charles River and weighing 16-17 g, are placed 5 per cage and allowed to acclimate for 4 days before being treated and then inoculated with sporozoites. They are fed food and water ad-lib and maintained at 76° F. with 12 hr light and 12 hr darkness. The cages and water bottles are changed biweekly. The mice are weighed on Days 0, 3 and 6 then biweekly when blood films are taken. Plasmodium yoelii (17×) is used to infect mice that will be used to infect the mosquitoes. Mice are given a single dose of test compound 4 hr before being inoculated intraperitoneally with 2.5×10^5 sporozoites of Plasmodium yoelii on Day 0. […]

Structure (SMILES)	# Monkey Cured/# Monkey Used, P. falciparum [1]	IC50 W-2 ([2]; P. falciparum W-2 clone) [ng/mL]	IC50 ([2]; Plasmodium falciparum, read-out: IC50 W-2) [ng/mL]
CCOC(=O)Nc1nc(NC(=O)OCC)c2c(ccc3c2ccn3Cc2ccccc2C(F)(F)F)n1 [Compound 2b]	2/2	127.80 (≈ 255 nM)	–
CC(=O)N(C(C)=O)c1nc(N(C(C)=O)C(C)=O)c2c(ccc3c2ccn3Cc2ccccc2C(F)(F)F)n1 [Compound 3e, 1,3-Bis(diacetylamino)-7-(2-trifluoromethyl)benzyl-7H-pyrrolo[3,2-f]quinazoline]	2/2	–	0.0752 (≈ 0.143 nM)
